Key:
[1] = target: T1, Toll-like receptor 7 (Homo sapiens, UniProt Q9NYK1); assay: Agonist activity at TLR7 in human HEK-SEAP reporter cell assessed as NF-kappaB activation; format: cell-based
T1 sequence (Q9NYK1 whole entry): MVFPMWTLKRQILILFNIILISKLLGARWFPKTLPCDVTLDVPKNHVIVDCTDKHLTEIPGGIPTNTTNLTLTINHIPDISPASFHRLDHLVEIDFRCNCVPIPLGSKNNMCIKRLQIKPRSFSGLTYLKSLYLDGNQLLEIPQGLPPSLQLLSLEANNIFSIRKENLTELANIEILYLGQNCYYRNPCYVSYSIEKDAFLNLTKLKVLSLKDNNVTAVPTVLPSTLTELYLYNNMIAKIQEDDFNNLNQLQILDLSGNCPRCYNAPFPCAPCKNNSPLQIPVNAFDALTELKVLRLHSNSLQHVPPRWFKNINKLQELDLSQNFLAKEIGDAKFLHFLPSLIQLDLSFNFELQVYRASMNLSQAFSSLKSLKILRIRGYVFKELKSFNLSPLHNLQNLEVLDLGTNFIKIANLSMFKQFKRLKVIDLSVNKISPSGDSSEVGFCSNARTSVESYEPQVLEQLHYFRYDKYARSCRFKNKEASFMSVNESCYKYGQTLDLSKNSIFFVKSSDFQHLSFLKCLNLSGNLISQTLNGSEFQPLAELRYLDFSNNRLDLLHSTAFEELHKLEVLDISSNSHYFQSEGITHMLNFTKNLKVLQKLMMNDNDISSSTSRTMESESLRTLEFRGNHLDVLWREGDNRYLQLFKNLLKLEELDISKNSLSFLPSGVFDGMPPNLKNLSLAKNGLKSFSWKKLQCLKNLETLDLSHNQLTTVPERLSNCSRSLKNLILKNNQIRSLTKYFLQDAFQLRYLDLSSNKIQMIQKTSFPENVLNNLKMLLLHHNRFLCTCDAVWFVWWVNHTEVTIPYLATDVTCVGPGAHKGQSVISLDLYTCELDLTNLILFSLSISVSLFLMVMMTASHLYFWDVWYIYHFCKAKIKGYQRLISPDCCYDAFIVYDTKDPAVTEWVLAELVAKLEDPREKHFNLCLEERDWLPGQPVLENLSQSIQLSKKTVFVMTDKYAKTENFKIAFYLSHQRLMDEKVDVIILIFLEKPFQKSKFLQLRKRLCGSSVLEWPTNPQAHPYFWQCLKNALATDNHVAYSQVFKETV

[2] = target: T2, Toll-like receptor 8 (Homo sapiens, UniProt Q9NR97); assay: Agonist activity at TLR8 in human HEK-SEAP reporter cell assessed as NF-kappaB activation; format: cell-based
T2 sequence (Q9NR97 whole entry): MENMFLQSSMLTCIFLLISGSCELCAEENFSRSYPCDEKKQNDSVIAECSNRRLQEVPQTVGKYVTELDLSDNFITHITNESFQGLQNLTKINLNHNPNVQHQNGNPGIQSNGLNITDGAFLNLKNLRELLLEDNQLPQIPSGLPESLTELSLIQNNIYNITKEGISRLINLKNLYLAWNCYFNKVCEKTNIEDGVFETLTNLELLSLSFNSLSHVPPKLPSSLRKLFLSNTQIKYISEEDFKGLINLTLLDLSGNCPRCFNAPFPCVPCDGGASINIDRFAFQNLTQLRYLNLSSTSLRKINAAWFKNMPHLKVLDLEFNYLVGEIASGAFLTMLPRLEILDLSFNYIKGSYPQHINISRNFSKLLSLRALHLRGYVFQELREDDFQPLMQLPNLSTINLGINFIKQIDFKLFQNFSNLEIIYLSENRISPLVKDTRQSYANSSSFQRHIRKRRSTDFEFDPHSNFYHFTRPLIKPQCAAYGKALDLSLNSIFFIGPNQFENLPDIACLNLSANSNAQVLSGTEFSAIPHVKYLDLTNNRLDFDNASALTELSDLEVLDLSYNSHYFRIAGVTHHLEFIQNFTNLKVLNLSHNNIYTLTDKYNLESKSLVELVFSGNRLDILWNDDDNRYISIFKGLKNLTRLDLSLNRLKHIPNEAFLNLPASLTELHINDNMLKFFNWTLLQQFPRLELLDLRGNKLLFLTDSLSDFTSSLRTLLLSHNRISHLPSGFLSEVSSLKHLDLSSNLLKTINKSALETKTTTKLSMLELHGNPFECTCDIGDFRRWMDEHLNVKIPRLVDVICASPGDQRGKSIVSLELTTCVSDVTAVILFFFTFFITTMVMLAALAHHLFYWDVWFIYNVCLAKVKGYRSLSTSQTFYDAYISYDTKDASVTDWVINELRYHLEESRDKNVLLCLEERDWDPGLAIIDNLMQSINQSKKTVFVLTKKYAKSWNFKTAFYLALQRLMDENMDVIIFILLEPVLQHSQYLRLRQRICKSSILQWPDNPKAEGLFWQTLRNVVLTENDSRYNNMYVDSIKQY

Row | EC50 [1] | EC50 [2] | SMILES
1 | 0.21 µM | – | CC(C)Cc1nc2c(N)nc3ccccc3c2n1Cc1ccc(CN)cc1
2 | 0.99 µM | – | CC(O)Cn1c(CC2CC2)nc2c(N)nc3ccccc3c21 (centres undefined)
3 | 13.2 µM | – | COC(=O)c1ccc2c(c1)nc(N)c1nc(CC3CC3)n(CC(C)O)c12 (centres undefined)
4 | – | 27 µM | CC(C)Cc1nc2c(N)nc3ccccc3c2n1CC(C)O (centres undefined)

From ChEMBL document CHEMBL5143565, “Toll-like receptor 7 and 8 imidazoquinoline-based agonist/antagonist pairs” (Bioorg Med Chem Lett, 2022)
